From patent publication US20200239530A1, “COMPOUNDS AND METHODS OF MODULATING PROTEIN DEGRADATION” (Vividion Therapeutics, Inc., priority 2017, published 2020)
Where two headings read alike, the source gives them in different places. Blank lines part the entries; values can stand above or below the molecule they belong to.

Experiments:
Test in all cases: Competitive cysteine profiling, probe competition (Table 2B)
Type in all cases: binding
O95376 = target: T1, O95376 (Homo sapiens, UniProt O95376); settings: 500 uM
T1 construct: Cells were resuspended in cold PBS on ice and sonicated with a probe sonicator to achieve lysis; endogenous in cells
T1 sequence (O95376 1-493): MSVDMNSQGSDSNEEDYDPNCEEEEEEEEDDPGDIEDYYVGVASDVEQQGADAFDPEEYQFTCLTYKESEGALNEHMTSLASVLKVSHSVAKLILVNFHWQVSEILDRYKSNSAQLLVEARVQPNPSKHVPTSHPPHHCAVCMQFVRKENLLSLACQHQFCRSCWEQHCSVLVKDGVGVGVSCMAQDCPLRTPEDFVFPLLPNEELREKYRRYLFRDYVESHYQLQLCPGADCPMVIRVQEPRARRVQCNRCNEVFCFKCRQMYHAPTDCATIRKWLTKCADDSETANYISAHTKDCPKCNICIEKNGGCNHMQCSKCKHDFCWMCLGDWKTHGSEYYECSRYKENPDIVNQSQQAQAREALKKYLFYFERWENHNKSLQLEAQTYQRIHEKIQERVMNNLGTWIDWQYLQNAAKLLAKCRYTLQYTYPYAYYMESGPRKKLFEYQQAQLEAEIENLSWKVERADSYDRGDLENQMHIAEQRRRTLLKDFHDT
Text: (§1) The following 96-well sample prep protocol was used for sample preparation.

Q96C12 = target: T2, Q96C12 (Homo sapiens, UniProt Q96C12)
T2 construct: Cells were resuspended in cold PBS on ice and sonicated with a probe sonicator to achieve lysis; endogenous in cells
T2 sequence (Q96C12 1-935): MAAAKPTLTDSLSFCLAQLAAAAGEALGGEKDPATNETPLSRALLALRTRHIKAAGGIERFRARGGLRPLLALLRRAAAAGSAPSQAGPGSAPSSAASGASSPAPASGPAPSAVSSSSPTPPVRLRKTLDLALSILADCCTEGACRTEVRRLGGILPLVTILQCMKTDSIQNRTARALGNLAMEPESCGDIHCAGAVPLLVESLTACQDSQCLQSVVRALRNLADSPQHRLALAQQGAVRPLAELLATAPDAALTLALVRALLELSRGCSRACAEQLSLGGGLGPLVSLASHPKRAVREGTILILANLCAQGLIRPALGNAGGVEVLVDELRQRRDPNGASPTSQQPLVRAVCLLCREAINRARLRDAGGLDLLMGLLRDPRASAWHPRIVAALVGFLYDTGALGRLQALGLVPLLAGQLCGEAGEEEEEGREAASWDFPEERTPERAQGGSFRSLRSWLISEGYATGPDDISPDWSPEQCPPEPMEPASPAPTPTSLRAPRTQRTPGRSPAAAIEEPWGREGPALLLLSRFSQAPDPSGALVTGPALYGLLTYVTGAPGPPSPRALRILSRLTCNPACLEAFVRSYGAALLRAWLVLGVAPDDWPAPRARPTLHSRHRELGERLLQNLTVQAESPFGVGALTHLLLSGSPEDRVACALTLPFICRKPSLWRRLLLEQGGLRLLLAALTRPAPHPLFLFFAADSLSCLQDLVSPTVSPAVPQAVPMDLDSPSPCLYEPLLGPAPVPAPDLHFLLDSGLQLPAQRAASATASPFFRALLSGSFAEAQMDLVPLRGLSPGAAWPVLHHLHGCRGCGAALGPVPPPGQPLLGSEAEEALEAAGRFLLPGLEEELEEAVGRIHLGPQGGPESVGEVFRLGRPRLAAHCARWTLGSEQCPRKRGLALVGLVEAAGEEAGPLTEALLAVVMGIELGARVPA
Text: as §1

Q96DX5 = target: T3, Q96DX5 (Homo sapiens, UniProt Q96DX5)
T3 construct: 200 μL of lysate containing 5 mg/ml proteome was treated with 2 μL of 100× compound stock; endogenous in cells
T3 sequence (Q96DX5 1-294): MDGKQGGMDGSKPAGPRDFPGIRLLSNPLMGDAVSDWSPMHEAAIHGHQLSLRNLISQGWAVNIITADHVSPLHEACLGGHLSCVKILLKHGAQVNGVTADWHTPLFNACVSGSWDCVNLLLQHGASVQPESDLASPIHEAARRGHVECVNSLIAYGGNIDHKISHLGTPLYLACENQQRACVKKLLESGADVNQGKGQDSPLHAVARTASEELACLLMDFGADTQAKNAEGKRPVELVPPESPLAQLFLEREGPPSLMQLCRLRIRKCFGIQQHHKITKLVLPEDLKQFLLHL
Text: as §1

Q9UKV5 = target: T4, Q9UKV5 (Homo sapiens, UniProt Q9UKV5)
T4 construct: Cells were resuspended in cold PBS on ice and sonicated with a probe sonicator to achieve lysis; endogenous in cells
Text: as §1

[1] = read-out: KB02_100 uM_percent_inhibition
[2] = read-out: KB05_100 uM_percent_inhibition

T4 sequence (Q9UKV5 whole entry): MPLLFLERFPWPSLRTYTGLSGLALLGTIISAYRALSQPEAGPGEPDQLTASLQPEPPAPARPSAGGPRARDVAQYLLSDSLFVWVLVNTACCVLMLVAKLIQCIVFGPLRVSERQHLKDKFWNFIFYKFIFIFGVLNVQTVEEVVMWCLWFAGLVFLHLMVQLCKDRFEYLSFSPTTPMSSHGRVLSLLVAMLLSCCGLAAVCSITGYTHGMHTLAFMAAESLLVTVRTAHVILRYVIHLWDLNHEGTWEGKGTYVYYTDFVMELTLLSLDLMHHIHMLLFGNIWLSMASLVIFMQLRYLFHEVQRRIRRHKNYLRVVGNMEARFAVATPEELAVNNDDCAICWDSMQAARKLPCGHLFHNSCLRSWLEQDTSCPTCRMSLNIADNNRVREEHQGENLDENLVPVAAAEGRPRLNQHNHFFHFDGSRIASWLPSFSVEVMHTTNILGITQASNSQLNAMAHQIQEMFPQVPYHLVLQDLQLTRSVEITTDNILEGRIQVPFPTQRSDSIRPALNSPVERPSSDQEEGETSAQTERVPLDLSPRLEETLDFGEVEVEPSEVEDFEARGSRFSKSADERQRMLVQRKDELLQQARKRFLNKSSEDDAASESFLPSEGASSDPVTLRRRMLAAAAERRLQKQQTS

Structure (SMILES): COc1ccc2c(c1)CCCN2C(=O)CCl [KB02]
KB02_500 uM_percent_inhibition (O95376): 89%
inhibition at 100 µM (Q96C12; [1]): 62%
inhibition at 100 µM (Q96DX5; [1]): 30%
inhibition at 100 µM (Q9UKV5; [1]): 4%
inhibition at 500 µM (Q9UKV5; 500 uM, read-out: KB02_500 uM_percent_inhibition): 19%

KB05_500 uM_percent_inhibition (O95376): 79%
inhibition at 100 µM (Q96C12; [2]): 23%
inhibition at 100 µM (Q96DX5; [2]): 12%
inhibition at 100 µM (Q9UKV5; [2]): 5%
inhibition at 500 µM (Q9UKV5; 500 uM, read-out: KB05_500 uM_percent_inhibition): 18%
Structure (SMILES): C=CC(=O)N(c1ccccc1)c1ccc(Br)cc1 [KB05]

Structure (SMILES): O=C(CCl)Nc1cc(C(F)(F)F)cc(C(F)(F)F)c1 [KBO3]
KB03_500 uM_percent_inhibition (O95376): 100%
KB03_100 uM_percent_inhibition (Q96C12; 100 uM): 40%
KB03_100 uM_percent_inhibition (Q96DX5; 100 uM): 33%
KB03_500 uM_percent_inhibition (Q9UKV5; 500 uM): 48%
